Experiment [1] relates to AlgW. As to the kind of experiment: AlgW activation by agonist gradient (agonists versus velocity), saturated Abz-VLAG-pNA. As to conditions: 100 μM Abz-VLAG-pNA, 200 nM AlgW. In kind it is biochemical, Pseudomonas aeruginosa. As for the experimental part:
(§1) FIG 2 Determination of enzyme apparent kinetic parameters of dual-signal-activated AlgW. (A) Activity assay of tripeptide or decapeptide-activated AlgW using the quenched fluorescent substrates Abz-VLAG-pNA, Abz-TVAW-pNA, and Abz-AAAA-pNA. All assays were placed in a buffer containing 25 mM Tris (pH 7.5) and 150 mM NaCl at 37°C for 1 h by adding 100 μM substrate, 200 nM AlgW, and 10 mM agonist peptides (tripeptide WVF or decapeptide SVRDELRWVF). (B) The apparent Michaelis-Menten parameters of AlgW cleavage quenched fluorescent substrates Abz-VLAG-pNA (100 μM) under the condition of peptide or lipid activation. (C) The activity assay of peptide or DDM activated AlgW using the saturated quenched fluorescent substrates Abz-VLAG-pNA. Under the gradient of peptide or DDM concentration,100 μM substrate and 200 nM AlgW were coincubated with or without 400 μM DDM or 10 mM agonist peptides in a buffer containing 25 mM Tris (pH 7.5) and 150 mM NaCl at 37°C for 1 h. The final assay volume of all experiments was 100 μl, and the appearance of fluorescent products was monitored at 60-s intervals at fluorescence wavelengths of λex = 310 nm and λem = 420 nm. […] The Kcat for the AlgW trimer was calculated by Kcat = Vmax/(Etotal), (Etotal) = 200/3 nM trimers. […]
For the enzyme mechanism of AlgW (30–389) and mutants, two internally quenched fluorescent peptide substrates incorporating the peptidase cleavage site of MucA/MucB, Abz-VLAG-pNA and Abz-TVAW-pNA, were designed and synthesized (GL Biochem Shanghai Ltd., China). In the intact peptide, the fluorescence of the anthraniloyl group is quenched by the P-nitroaniline (Abz is a fluorogenic group, and pNA is a quencher of fluorescence). This quenched fluorescence is liberated upon cleavage of peptide by 200 nM AlgW and mutants (200/3 nM for trimer), resulting in increased fluorescence that can then be monitored fluorometrically. […] The fluorescent degradation products were monitored at 60-s intervals at fluorescence wavelength—λex = 310 nm, λem = 420 nm ([41]). […]

Experiment [2] relates to AlgW. As to the kind of experiment: Muc- protease degradation assay. Particulars: MucB 130 μM, AlgW 25 μM; lipid-A 100 μM, DDM 400 μM or decapeptide 100 μM; 25 mM Tris-HCl pH 7.5, 150 mM NaCl, 37°C; 30 min; gel bands. In kind it is biochemical, Pseudomonas aeruginosa. As for the experimental part: FIG 1 Degradation of MucA and MucB by AlgW in response to the peptides and lipid signals. (A and B) MucB/RseB (130 μM) was cleaved by AlgW/DegS (25 μM) in the presence of different agonist combinations, including lipid-A (100 μM), lipid-like detergent DDM (400 μM), decapeptide SVRDELRWVF (100 μM), and decapeptide combined with lipid-A or DDM. (C and D) MucB/RseB-protected MucA^peri/RseA^peri degradation by AlgW/DegS in the presence of different lengths of the activating peptides in a time-dependent manner. MucA^peri (125 μM), AlgW (25 μM), MucB (130 μM), activation peptides (tripeptide WVF or decapeptide SVRDELRWVF, 100 μM), and lipid-A (100 μM) were incubated at 37°C in a time-dependent manner in buffer (25 mM Tris-HCl pH 7.5, 150 mM NaCl). Similarly, RseA^peri (125 μM) was cleaved by DegS (25 μM) in the presences of RseB (130 μM), activation peptides (tripeptide YYF or decapeptide DNRDGNVYYF, 100 μM), and lipid-A (100 μM) at 37°C in a time-dependent manner in a phosphate buffer containing 50 mM NaHPO4 (pH 7.5), 200 mM NaCl, 10% glycerol, and 4 mM EDTA. (E and F) MucA^peri/RseA^peri was cleaved by AlgW/DegS in the presence of different agonist combinations in a time-dependent manner. MucA^peri (125 μM), AlgW (25 μM), activation decapeptide SVRDELRWVF (100 μM), and lipid-A (100 μM) were incubated at 37°C in a time-dependent manner in buffer. […]

For experiment [3], the target named is T1, AlgW (Pseudomonas aeruginosa, UniProt Q9HVX1).
T1 construct: soluble periplasmic region, residues 30-389, pET22b with PreScission-cleavable 6xHis; trimer
The experiment is described as follows: Activation of 200 nM AlgW cleavage of 100 μM Abz-VLAG-pNA by a DDM gradient without agonist peptide, 25 mM Tris pH 7.5, 150 mM NaCl, 37°C, Hill-type fit. In kind it is biochemical. As to conditions: n = 3; read-out: Half-Maximal Activation concentration (μM), DDM gradient. As for the experimental part:
as §1, with “Under the gradient of peptide or DDM concentration,100 μM substrate and 200 nM AlgW were coincubated with or without 400 μM DDM or 10 mM agonist peptides in a buffer containing 25 mM Tris (pH 7.5) and 150 mM NaCl at 37°C for 1 h.” left out
In the presence of a fixed amount of AlgW and saturated substrate, we measured the initial rates of AlgW at various concentrations of decapeptide or DDM (Fig. 2C). […]

The structures appear in SMILES notation. “And” between values parts separate entries of the source, which are not always exact repeats. Equal entries are not always repeated.

T1 sequence (Q9HVX1 entry or part of it): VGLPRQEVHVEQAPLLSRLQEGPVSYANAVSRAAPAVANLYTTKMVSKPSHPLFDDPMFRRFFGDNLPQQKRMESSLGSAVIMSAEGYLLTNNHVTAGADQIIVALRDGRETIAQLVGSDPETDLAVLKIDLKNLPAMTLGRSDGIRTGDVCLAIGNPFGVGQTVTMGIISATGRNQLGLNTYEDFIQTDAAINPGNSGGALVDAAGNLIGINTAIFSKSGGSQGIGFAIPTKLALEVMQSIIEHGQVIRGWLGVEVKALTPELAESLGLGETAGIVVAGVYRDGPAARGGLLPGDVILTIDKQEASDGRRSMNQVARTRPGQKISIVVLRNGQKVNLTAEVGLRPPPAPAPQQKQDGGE

In the case of `CCCCCCCCCCCCO[C@@H]1O[C@H](CO)[C@@H](O[C@H]2O[C@H](CO)[C@@H](O)[C@H](O)[C@H]2O)[C@H](O)[C@H]1O` [DDM, N-dodecyl-β-D-maltopyranoside], the “Maximal cleavage activity” value in experiment [1] (DDM gradient with 10 mM decapeptide (AlgW+Decapeptide), Tris pH 7.5, 37°C, 1 h) worked out at 717.8 ± 15.07 µM/min. The “Hill constants” value in experiment [1] (gradient of the agonist alone) is 1.43 and 1.43 ± 0.22. For the same molecule, the EC50 stood at 92 ± 12.4 µM in experiment [1] (gradient of the agonist alone, Tris pH 7.5, 37°C, Hill fit, three independent determinations, read-out: Half-Maximal Activation concentration) and 92 ± 12.4 µM in experiment [3]. Moreover, in experiment [2], the “MucB cleavage by AlgW” value is reported as “could be activated”.
